Reference: patent publication US4558134A, “Certain phenoxy-pyridine-carbonitriles having antiviral activity” (The Dow Chemical Company, priority 1983, dated 1985)
Converted amounts (≈) assume the structure as drawn. Read-outs that look alike come from different tables or passages of the source.

Legend:
[1] = tested on: Coxsackie A21 virus (Cox A21); assay: Tissue culture testing, reduction of viral cytopathic effect, Cox A21; assay type: cell-based; details: HeLa cells, 48 and 72 hours, read-out: Lowest concentration of the compound necessary to cause a 50 percent reduction in cytopathic effect, CoxA21
[2] = tested on: rhinovirus type 64 (RV-64); assay: Tissue culture testing, reduction of viral cytopathic effect, RV-64; assay type: cell-based; details: Enterovirus, read-out: Lowest concentration of the compound necessary to cause a 50 percent reduction in cytopathic effect, RV-64
rhinovirus type 2 (RV-2) = assay: Tissue culture testing, reduction of viral cytopathic effect, RV-2; assay type: cell-based; details: Enterovirus, read-out: Lowest concentration of the compound necessary to cause a 50 percent reduction in cytopathic effect, RV-2
[3] = tested on: rhinovirus type 1A (RV-1A); assay: Tissue culture testing, reduction of viral cytopathic effect, RV-1A; assay type: cell-based; details: Enterovirus, read-out: Lowest concentration of the compound necessary to cause a 50 percent reduction in cytopathic effect, RV-1A
in vitro = details: human, hela cells
Coxsackie A21 virus = assay: Continuous Oral Feeding test in mice challenged IP with Coxsackie A21 virus; details: 0.06% by weight in diet; 10 days; >3.84 active (95% confidence level)
[4] = tested on: polio virus type 2 (Polio-2); assay: organism not typed; assay type: cell-based; details: HeLa, read-out: Lowest concentration of the compound necessary to cause a 50 percent reduction in cytopathic effect, Polio-2
[5] = tested on: rhinovirus type 39 (RV-39); assay: Tissue culture testing, reduction of viral cytopathic effect, RV-39; assay type: cell-based; details: Enterovirus, read-out: Lowest concentration of the compound necessary to cause a 50 percent reduction in cytopathic effect, RV-39
[6] = HeLa cells, RV-64, 48 and 72 hours
[7] = HeLa cells, RV-2, 48 and 72 hours
[8] = HeLa cells, RV-1A, 48 and 72 hours
[9] = HeLa cells, RV-39, 48 and 72 hours

CCCCSc1ccc(Oc2ccc(Cl)c(Cl)c2)c(C#N)n1 [Example 39, 3-(3,4-Dichlorophenoxy)-6-(n-butylthio)-2-pyridinecarbonitrile]
EC50 [1]: 1.56 µg/mL (≈ 4.42 µM)
EC50 [2, 6]: 12.5 µg/mL (≈ 35.4 µM)
EC50 (rhinovirus type 2 (RV-2); [7]): 3.13 µg/mL (≈ 8.86 µM)
EC50 [3, 8]: > 25 µg/mL
MCC (in vitro): ≥ 25 µg/mL

CC(C)Sc1ccc(Oc2ccc(Cl)c(Cl)c2)c(C#N)n1 [Example 37, 3-(3,4-Dichlorophenoxy)-6-isopropylthio-2-pyridinecarbonitrile]
EC50 [1]: < 1.56 µg/mL
EC50 [2, 6]: ≤ 1.56 µg/mL
EC50 (rhinovirus type 2 (RV-2); [7]): < 1.56 µg/mL
EC50 [3, 8]: 3.13 µg/mL (≈ 9.23 µM)
MCC (in vitro): ≥ 25 µg/mL

CS(=O)(=O)c1ccc(Oc2ccc(Cl)c(Cl)c2)nc1C#N [Example 32, 6-(3,4-Dichlorophenoxy)-3-methylsulfonyl-2-pyridinecarbonitrile]
EC50 [1]: > 50 µg/mL
EC50 [2, 6]: 3.13 µg/mL (≈ 9.12 µM)
Continuous Oral Feeding X^2 (chi-square, mortality) (Coxsackie A21 virus): 10.1
EC50 (rhinovirus type 2 (RV-2); [7]): 6.25 µg/mL (≈ 18.2 µM)
EC50 [3, 8]: 6.25 µg/mL (≈ 18.2 µM)
MCC (in vitro): > 12.5 µg/mL
EC50 [4]: > 12.5 µg/mL
EC50 ([5]; HeLa): > 12.5 µg/mL

CC(C)CSc1ccc(Oc2ccc(Cl)c(Cl)c2)c(C#N)n1 [Example 43, 3-(3,4-Dichlorophenoxy)-6-(isobutylthio)-2-pyridinecarbonitrile]
EC50 [1]: 1.56 µg/mL (≈ 4.42 µM)
EC50 [2, 6]: 3.13 µg/mL (≈ 8.86 µM)
EC50 (rhinovirus type 2 (RV-2); [7]): ≤ 1.56 µg/mL
EC50 [3, 8]: 12.5 µg/mL (≈ 35.4 µM)
MCC (in vitro): ≥ 25 µg/mL

CCSc1cc(C#N)c(Oc2ccc(Cl)c(Cl)c2)cn1 [Example 23, 5-(3,4-Dichlorophenoxy)-2-ethylthio-4-pyridinecarbonitrile]
EC50 [1]: 2.5 µg/mL (≈ 7.69 µM)
EC50 (rhinovirus type 2 (RV-2); [7]): 2.5 µg/mL (≈ 7.69 µM)
EC50 [3, 8]: > 50 µg/mL
MCC (in vitro): 50 µg/mL

CCCCSc1ccc(Oc2ccc(Cl)c(Cl)c2)nc1C#N [Example 38, 6-(3,4-Dichlorophenoxy)-3-(n-butylthio)-2-pyridinecarbonitrile]
EC50 [1]: < 1.56 µg/mL
EC50 [2, 6]: 12.5 µg/mL (≈ 35.4 µM)
EC50 (rhinovirus type 2 (RV-2); [7]): 6.25 µg/mL (≈ 17.7 µM)
EC50 [3, 8]: 12.5 µg/mL (≈ 35.4 µM)
MCC (in vitro): > 25 µg/mL

CCC(C)Sc1ccc(Oc2ccc(Cl)c(Cl)c2)c(C#N)n1 (stereo not drawn) [Example 41, 3-(3,4-Dichlorophenoxy)-6-(sec-butylthio)-2-pyridinecarbonitrile]
EC50 [1]: ≤ 1.56 µg/mL
EC50 [2, 6]: < 1.56 µg/mL
EC50 (rhinovirus type 2 (RV-2); [7]): < 1.56 µg/mL
EC50 [3, 8]: 6.25 µg/mL (≈ 17.7 µM)
MCC (in vitro): > 25 µg/mL

CCSc1cnc(Oc2ccc(Cl)c(Cl)c2)c(C#N)c1 [Example 28, 2-(3,4-Dichlorophenoxy)-5-ethylthio-3-pyridinecarbonitrile]
EC50 [1]: 1.25 µg/mL (≈ 3.84 µM)
EC50 [2, 6]: > 50 µg/mL
EC50 (rhinovirus type 2 (RV-2); [7]): > 50 µg/mL
EC50 [3, 8]: > 50 µg/mL
MCC (in vitro): > 50 µg/mL

CSc1cc(C#N)c(Oc2ccc(Cl)c(Cl)c2)cn1 [Example 24, 5-(3,4-Dichlorophenoxy)-2-methylthio-4-pyridinecarbonitrile]
EC50 [1]: 1.25 µg/mL (≈ 4.02 µM)
EC50 [2, 6]: > 50 µg/mL
EC50 (rhinovirus type 2 (RV-2); [7]): > 50 µg/mL
EC50 [3, 8]: > 50 µg/mL
MCC (in vitro): > 50 µg/mL

CCCSc1ccc(Oc2ccc(Cl)c(Cl)c2)nc1C#N [Example 34, 6-(3,4-Dichlorophenoxy)-3-propylthio-2-pyridinecarbonitrile]
EC50 [1]: 0.08 µg/mL (≈ 0.236 µM)
EC50 [2, 6]: > 12.5 µg/mL
EC50 (rhinovirus type 2 (RV-2); [7]): 3.13 µg/mL (≈ 9.23 µM)
EC50 ([3]; HeLa): 1.56 µg/mL (≈ 4.6 µM)
MCC (in vitro): > 50 µg/mL
EC50 [4]: 1.56 µg/mL (≈ 4.6 µM)
EC50 [5, 9]: 25 µg/mL (≈ 73.7 µM)

CCCSc1ccc(Oc2ccc(Cl)c(Cl)c2)c(C#N)n1 [Example 35, 3-(3,4-Dichlorophenoxy)-6-propylthio-2-pyridinecarbonitrile]
EC50 [1]: < 3.13 µg/mL
EC50 ([2]; HeLa): > 12.5 µg/mL
EC50 (rhinovirus type 2 (RV-2); HeLa): 12.5 µg/mL (≈ 36.8 µM)
EC50 [3, 8]: 0.78 µg/mL (≈ 2.3 µM)
MCC (in vitro): 50 µg/mL
EC50 [4]: 12.5 µg/mL (≈ 36.8 µM)
EC50 ([5]; HeLa): 12.5 µg/mL (≈ 36.8 µM)

CCC(C)Sc1ccc(Oc2ccc(Cl)c(Cl)c2)nc1C#N (stereo not drawn) [Example 40, 6-(3,4-Dichlorophenoxy)-3-(sec-butylthio)-2-pyridinecarbonitrile]
EC50 [1]: 0.16 µg/mL (≈ 0.453 µM)
EC50 [2, 6]: 1.56 µg/mL (≈ 4.42 µM)
EC50 (rhinovirus type 2 (RV-2); [7]): 1.25 µg/mL (≈ 3.54 µM)
EC50 [3, 8]: 1.56 µg/mL (≈ 4.42 µM)
MCC (in vitro): > 25 µg/mL
EC50 [5, 9]: 10 µg/mL (≈ 28.3 µM)

CCSc1ncc(Oc2ccc(Cl)c(Cl)c2)cc1C#N [Example 27, 5-(3,4-Dichlorophenoxy)-2-ethylthio-3-pyridinecarbonitrile]
EC50 [1]: < 3.13 µg/mL
MCC (in vitro): > 50 µg/mL

CC(C)Sc1ccc(Oc2ccc(Cl)c(Cl)c2)nc1C#N [Example 36, 6-(3,4-Dichlorophenoxy)-3-isopropylthio-2-pyridinecarbonitrile]
EC50 [1]: < 1.56 µg/mL
EC50 [2, 6]: 3.13 µg/mL (≈ 9.23 µM)
EC50 (rhinovirus type 2 (RV-2); [7]): ≤ 1.56 µg/mL
EC50 [3, 8]: ≤ 1.56 µg/mL
MCC (in vitro): 12.5 µg/mL
EC50 [5, 9]: 1.56 µg/mL (≈ 4.6 µM)

CCSc1cnc(Oc2ccc(Cl)c(Cl)c2)cc1C#N [Example 22, 2-(3,4-Dichlorophenoxy)-5-ethylthio-4-pyridinecarbonitrile]
EC50 [1]: 0.63 µg/mL (≈ 1.94 µM)
EC50 (rhinovirus type 2 (RV-2); [7]): 2.5 µg/mL (≈ 7.69 µM)
EC50 [3, 8]: > 50 µg/mL
MCC (in vitro): 50 µg/mL

CCSc1ccc(Oc2ccc(Cl)c(Cl)c2)nc1C#N [Example 20, 6-(3,4-Dichlorophenoxy)-3-ethylthio-2-pyridinecarbonitrile]
EC50 [1]: 0.03 µg/mL (≈ 0.0922 µM)
EC50 [2, 6]: 12.5 µg/mL (≈ 38.4 µM)
Continuous Oral Feeding X^2 (chi-square, mortality) (Coxsackie A21 virus): 6.5
EC50 (rhinovirus type 2 (RV-2); [7]): 3.13 µg/mL (≈ 9.62 µM)
EC50 [3, 8]: 3.13 µg/mL (≈ 9.62 µM)
MCC (in vitro): > 12.5 µg/mL
EC50 [4]: < 0.78 µg/mL
EC50 [5, 9]: 6.25 µg/mL (≈ 19.2 µM)

C[S+]([O-])c1ccc(Oc2ccc(Cl)c(Cl)c2)nc1C#N (stereo not drawn) [Example 29, 6-(3,4-Dichlorophenoxy)-3-methylsulfinyl-2-pyridinecarbonitrile]
EC50 [1]: 12.5 µg/mL (≈ 38.2 µM)
EC50 (rhinovirus type 2 (RV-2); [7]): 12.5 µg/mL (≈ 38.2 µM)
EC50 [3, 8]: 12.5 µg/mL (≈ 38.2 µM)
MCC (in vitro): > 50 µg/mL

CC(C)CSc1ccc(Oc2ccc(Cl)c(Cl)c2)nc1C#N [Example 42, 6-(3,4-Dichlorophenoxy)-3-(isobutylthio)-2-pyridinecarbonitrile]
EC50 [1]: < 1.56 µg/mL
EC50 [2, 6]: 6.25 µg/mL (≈ 17.7 µM)
EC50 (rhinovirus type 2 (RV-2); [7]): 6.25 µg/mL (≈ 17.7 µM)
EC50 [3, 8]: 12.5 µg/mL (≈ 35.4 µM)
MCC (in vitro): > 25 µg/mL

CCSc1ccc(Oc2ccc(Cl)c(Cl)c2)c(C#N)n1 [Example 21, 3-(3,4-Dichlorophenoxy)-6-ethylthio-2-pyridinecarbonitrile]
EC50 [1]: 0.6 µg/mL (≈ 1.84 µM)
EC50 [2, 6]: 2.5 µg/mL (≈ 7.69 µM)
EC50 (rhinovirus type 2 (RV-2); [7]): 0.6 µg/mL (≈ 1.84 µM)
EC50 [3, 8]: 2.5 µg/mL (≈ 7.69 µM)
MCC (in vitro): 2.5 µg/mL

CCS(=O)(=O)c1ccc(Oc2ccc(Cl)c(Cl)c2)nc1C#N [Example 33, 6-(3,4-Dichlorophenoxy)-3-ethylsulfonyl-2-pyridinecarbonitrile]
EC50 [1]: < 3.1 µg/mL
EC50 (rhinovirus type 2 (RV-2); [7]): < 3.1 µg/mL
MCC (in vitro): 50 µg/mL

C[S+]([O-])c1ccc(Oc2ccc(Cl)c(Cl)c2)nc1C(N)=O (stereo not drawn) [Example 30, 6-(3,4-Dichlorophenoxy)-3-methylsulfinyl-2-pyridinecarboxamide]
EC50 [1]: < 3.1 µg/mL
EC50 (rhinovirus type 2 (RV-2); [7]): 6.3 µg/mL (≈ 18.2 µM)
EC50 [3, 8]: 6.3 µg/mL (≈ 18.2 µM)
MCC (in vitro): 25 µg/mL

CCSc1ccc(Oc2ccc(C(=O)c3ccccc3)cc2)nc1C#N [Example 26, 6-(4-Benzoylphenoxy)-3-ethylthio-2-pyridinecarbonitrile]
EC50 [1]: < 3.1 µg/mL
Continuous Oral Feeding X^2 (chi-square, mortality) (Coxsackie A21 virus): 27.5
EC50 (rhinovirus type 2 (RV-2); [7]): < 3.1 µg/mL
EC50 [3, 8]: 25 µg/mL (≈ 69.4 µM)
MCC (in vitro): 50 µg/mL

CC[S+]([O-])c1ccc(Oc2ccc(Cl)c(Cl)c2)nc1C#N (stereo not drawn) [Example 31, 6-(3,4-Dichlorophenoxy)-3-ethylsulfinyl-2-pyridinecarbonitrile]
EC50 [1]: < 3.1 µg/mL
EC50 (rhinovirus type 2 (RV-2); [7]): 12.5 µg/mL (≈ 36.6 µM)
EC50 [3, 8]: 12.5 µg/mL (≈ 36.6 µM)
MCC (in vitro): 50 µg/mL

CSc1ccc(Oc2ccc(Cl)c(Cl)c2)nc1C#N [Example 25, 6-(3,4-Dichlorophenoxy)-3-methylthio-2-pyridinecarbonitrile]
EC50 [1]: < 3.1 µg/mL
EC50 [3, 8]: 25 µg/mL (≈ 80.3 µM)
MCC (in vitro): > 50 µg/mL
